Measured values taken from patent US20070213359A1 (ACADIA Pharmaceuticals Inc., priority 2005, published 2007).
Read-outs that look alike come from different tables or passages of the source.

Target: Ghrelin receptor (Homo sapiens, UniProt Q92847)
Test: Receptor Selection and Amplification Technology (R-SAT) assay
Format: cell-based
Parameters: expressed in transfected cells; host or cells: NIH3T3
Conditions: for Emax: read-out: RSAT Eff(%)
[1] = […], '—' not defined (nd used separately), read-out: RSAT pIC50 (converted)

Chain of Ghrelin receptor (Q92847 whole entry): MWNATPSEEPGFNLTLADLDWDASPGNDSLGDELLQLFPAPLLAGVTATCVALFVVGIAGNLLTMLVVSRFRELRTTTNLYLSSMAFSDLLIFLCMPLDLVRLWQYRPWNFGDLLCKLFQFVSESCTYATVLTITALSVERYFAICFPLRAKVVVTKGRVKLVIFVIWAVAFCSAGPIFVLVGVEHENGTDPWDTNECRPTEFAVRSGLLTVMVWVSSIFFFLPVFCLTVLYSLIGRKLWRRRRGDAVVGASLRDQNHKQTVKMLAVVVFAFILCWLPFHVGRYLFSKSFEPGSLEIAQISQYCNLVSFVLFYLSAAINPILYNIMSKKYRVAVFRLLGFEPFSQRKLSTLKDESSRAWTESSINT

Row | Compound | IC50 [1] | Emax | RSAT Eff(%) | IC50 (RSAT pIC50)
1 | COc1cccc2c(C(=O)NCc3cccc(Cl)c3)cn(CCCN3C4CCC3CC(CCc3ccc(Cl)cc3)C4)c12 (centres unmarked) | 0.794 nM | 127% |  | 
2 | COc1cccc2c(C(=O)C3CC3)cn(CCCN3CCCN(CCc4ccccc4)CC3)c12 | 1.26 nM | 100% |  | 
3 | COc1cccc2c(C(=O)Cc3ccccc3)cn(CCCN3CCN(Cc4ccc(Cl)cc4Cl)CC3)c12 | 2 nM | 76% |  | 
4 | COc1cccc2c(C(=O)C3CC3)cn(CCCN3CCN(CCOc4ccccc4)CC3)c12 | 7.94 nM | 94% |  | 
5 | COc1cccc2c(C(=O)Cc3ccccc3)cn(CCCN3CCN(c4ncc(C(F)(F)F)cc4Cl)CC3)c12 | 7.94 nM | 95% |  | 
6 | COc1cccc2c(C(=O)NCc3cccc(C)c3)cn(CCCN3C4CCC3CC(CCc3ccccc3)C4)c12 (centres unmarked) | 10 nM | 89% |  | 
7 | COc1cccc2c(C(=O)NCC(C)C)cn(CCCN3CCC4(CC3)CC(=O)c3ccccc3O4)c12 | 12.6 nM | 115% |  | 
8 | COc1cccc2c(C(=O)NCC(C)C)cn(CCCN3CCCN(Cc4ccccc4Cl)CC3)c12 | 15.8 nM | 100% |  | 
9 | COc1cccc2c(C(=O)NCC(C)C)cn(CCCN3C4CCC3CC(CCc3ccccc3)C4)c12 (centres unmarked) | 15.8 nM | 86% |  | 
10 | COc1cccc2c(C(=O)c3ccccc3)cn(CCCN3C4CCC3CC(CCc3ccc(Cl)cc3)C4)c12 (centres unmarked) | 15.8 nM | 94% |  | 
11 | COc1cccc2c(C(=O)C3CC3)cn(CCCNCCOc3ccccc3)c12 | 15.8 nM | 83% |  | 
12 | COc1cccc2c(C(=O)NCc3cccc(C)c3)cn(CCCN3CCC(c4nc(-c5ccncc5)no4)CC3)c12 | 15.8 nM | 121% |  | 
13 | COc1cccc2c(C(=O)NCc3cccc(Cl)c3)cn(CCCN3CCC(c4nc(-c5cccnc5)no4)CC3)c12 | 20 nM | 103% |  | 
14 | COc1cccc2c(C(=O)NCc3cccc(Cl)c3)cn(CCCN3CCCN(Cc4ccccc4Cl)CC3)c12 | 20 nM | 107% |  | 
15 | COc1cccc2c(C(=O)C3CC3)cn(CCCN3CCC(c4nc(-c5ccncc5)no4)CC3)c12 | 20 nM | 87% |  | 
16 | CC(=O)c1cn(CCCN2CCC(N3C(=O)Cc4ccccc43)CC2)c2c(C#N)cccc12 | 20 nM |  | 133% | 
17 | COc1cccc2c(C(=O)Cc3ccccc3)cn(CCCN3CCC(c4nc(-c5cccnc5)no4)CC3)c12 |  | 88% |  | 20 nM
18 | COc1cccc2c(C(=O)C3CC3)cn(CCCNC3Cc4ccccc4C3)c12 | 25.1 nM | 97% |  | 
19 | COc1cccc2c(C(=O)NCc3cccc(C)c3)cn(CCCN3C4CCC3CC(CCc3ccc(Cl)cc3)C4)c12 (centres unmarked) | 25.1 nM | 77% |  | 
20 | COc1cccc2c(C(=O)Cc3ccccc3)cn(CCCN3CCC(c4nc(-c5ccncc5)no4)CC3)c12 | 25.1 nM | 137% |  | 
21 | COc1cccc2c(C(=O)c3ccccc3)cn(CCCN3CCC(c4nc(-c5ccncc5)no4)CC3)c12 | 25.1 nM | 98% |  | 
22 | COc1cccc2c(C(=O)NCC(C)C)cn(CCCN3CCN(Cc4ccc(Cl)cc4Cl)CC3)c12 | 25.1 nM | 105% |  | 
23 | COc1cccc2c(C(=O)NCC(C)C)cn(CCCNC3Cc4ccccc4C3)c12 | 31.6 nM | 102% |  | 
24 | COc1cccc2c(C(=O)NCC(C)C)cn(CCCN3CCN(c4ncc(C(F)(F)F)cc4Cl)CC3)c12 | 31.6 nM | 100% |  | 
25 | COc1cccc2c(C(=O)NCc3cccc(Cl)c3)cn(CCCN3CCC(c4nc(-c5ccncc5)no4)CC3)c12 | 31.6 nM | 105% |  | 

Row | Compound | IC50 [1] | Emax | RSAT Eff(%) | IC50 (RSAT pIC50)
26 | COc1cccc2c(C(=O)NCc3cccc(C)c3)cn(CCCN3CCN(c4ncc(C(F)(F)F)cc4Cl)CC3)c12 | 39.8 nM | 80% |  | 
27 | COc1cccc2c(C(=O)C3CC3)cn(CCCN3CCC(c4nc(-c5cccnc5)no4)CC3)c12 | 39.8 nM | 96% |  | 
28 | COc1cccc2c(C(=O)c3ccccc3)cn(CCCN3CCC(c4nc(-c5cccnc5)no4)CC3)c12 | 39.8 nM | 80% |  | 
29 | COc1cccc2c(C(=O)C3CC3)cn(CCCN3CCC(N4C(=O)Cc5ccccc54)CC3)c12 | 39.8 nM |  | 110% | 
30 | COc1cccc2c(C(=O)NCc3cccc(Cl)c3)cn(CCCN3CCN(c4ncc(C(F)(F)F)cc4Cl)CC3)c12 | 39.8 nM | 107% |  | 
31 | CC(=O)c1cn(CCCN2CCC(c3nc(-c4cccnc4)no3)CC2)c2c(C#N)cccc12 | 50.1 nM | 77% |  | 
32 | COc1cccc2c(C(=O)Cc3ccccc3)cn(CCCNCCOc3ccccc3)c12 | 50.1 nM | 92% |  | 
33 | CC(=O)c1cn(CCCNCCOc2ccccc2)c2c(Br)cccc12 | 50.1 nM | 132% |  | 
34 | COc1cccc2c(C(=O)Cc3ccccc3)cn(CCCNC3Cc4ccccc4C3)c12 | 50.1 nM | 103% |  | 
35 | COc1cccc2c(C(=O)NCc3cccc(Cl)c3)cn(CCCN3CCC4(CC3)CC(=O)c3ccccc3O4)c12 | 63.1 nM | 7.8% |  | 
36 | COc1cccc2c(C(=O)NCC(C)C)cn(CCCN3CCC(c4nc(-c5cccnc5)no4)CC3)c12 | 63.1 nM | 93% |  | 
37 | COc1cccc2c(C(=O)NCC(C)C)cn(CCCN3C4CCC3CC(CCc3ccc(Cl)cc3)C4)c12 (centres unmarked) | 63.1 nM | 85% |  | 
38 | COc1cccc2c(C(=O)c3ccccc3)cn(CCCN3CCCC(Cc4ccccc4Cl)C3)c12 (centres unmarked) | 63.1 nM | 82% |  | 
39 | COc1cccc2c(C(=O)C3CC3)cn(CCCN3C4CCC3CC(Oc3ccc(F)cc3)C4)c12 (centres unmarked) | 63.1 nM | 131% |  | 
40 | COc1cccc2c(C(=O)Cc3ccccc3)cn(CCCN3CCC4(CC3)CC(=O)c3ccccc3O4)c12 | 79.4 nM | 98% |  | 
41 | COc1cccc2c(C(=O)NCC(C)C)cn(CCCN3CCC(C(=O)c4ccccc4)CC3)c12 | 79.4 nM | 114% |  | 
42 | CC(=O)c1cn(CCCN2CCC(N3C(=O)Cc4ccccc43)CC2)c2c(Br)cccc12 | 100 nM |  | 60% | 
43 | COc1cccc2c(C(=O)NCc3cccc(C)c3)cn(CCCN3CCC(C(=O)c4ccccc4)CC3)c12 | 100 nM | 126% |  | 
44 | CCc1cccc2c(C(C)=O)cn(CCCN3CCC(N4C(=O)Cc5ccccc54)CC3)c12 | 100 nM |  | 147% | 
45 | CC(=O)c1cn(CCCN2CCCN(CCc3ccccc3)CC2)c2c(C)cccc12 | 100 nM | 102% |  | 
46 | CC(C)CC(=O)c1cn(CCCN2CCC(c3nc4c(s3)C=CCC4)CC2)c2ccccc12 | 126 nM | 108% |  | 
47 | COc1cccc2c(C(=O)NCC(C)C)cn(CCCN3CCN(CCOc4ccccc4)CC3)c12 | 126 nM | 118% |  | 
48 | CCc1cccc2c(C(C)=O)cn(CCCN3CCC4(CC3)CC(=O)c3ccccc3O4)c12 | 126 nM | 85% |  | 
49 | COc1cccc2c(C(=O)C3CC3)cn(CCCN3CCCC(Oc4ccc(Cl)cc4)C3)c12 (centres unmarked) | 126 nM | 37% |  | 
50 | COc1cccc2c(C(=O)NCC(C)C)cn(CCCN3C4CCC3CC(CC(=O)c3ccc(Cl)cc3)C4)c12 (centres unmarked) | 126 nM | 128% |  | 

Row | Compound | IC50 [1] | Emax | RSAT Eff(%) | IC50 (RSAT pIC50)
51 | COc1cccc2c(C(=O)NCc3cccc(Cl)c3)cn(CCCN3CCC(Oc4ccccc4Cl)CC3)c12 | 126 nM | 125% |  | 
52 | COc1ccccc1C1CCN(CCCn2cc(C(=O)NCc3cccc(C)c3)c3cccc(OC)c32)CC1 | 126 nM | 127% |  | 
53 | COc1cccc2c(C(=O)NCc3cccc(C)c3)cn(CCCN3CCC4(CC3)CC(=O)c3ccccc3O4)c12 | 158 nM | 63% |  | 
54 | CC(=O)c1cn(CCCNC2Cc3ccccc3C2)c2c(C)cccc12 | 158 nM | 70% |  | 
55 | COc1cccc2c(C(=O)NCC(C)C)cn(CCCNCCOc3ccccc3)c12 | 158 nM | 118% |  | 
56 | COc1cccc2c(C(=O)C3CC3)cn(CCCN3C4CCC3CC(Oc3ccccc3Cl)C4)c12 (centres unmarked) | 158 nM | 130% |  | 
57 | COc1cccc2c(C(C)=O)cn(CCCN3CCC(C#N)(c4ccccc4)CC3)c12 |  | 101% |  | 200 nM
58 | CC(=O)c1cn(CCCN2CCN(c3nc(-c4cccnc4)no3)CC2)c2c(C)cccc12 | 200 nM | 110% |  | 
59 | CCCCC[C@H]1C[C@H]2CC[C@@H](C1)N2CCCn1cc(C(=O)c2ccccc2)c2cccc(OC)c21 | 200 nM | 91% |  | 
60 | CCCCC[C@H]1C[C@H]2CC[C@@H](C1)N2CCCn1cc(C(=O)C2CC2)c2cccc(OC)c21 | 200 nM | 101% |  | 
61 | COc1cccc2c(C(=O)c3ccccc3)cn(CCCN3CCC4(CC3)CC(=O)c3ccccc3O4)c12 | 200 nM | 60% |  | 
62 | COc1ccc2c(C(C)=O)cn(CCCN3CCC(c4ccccc4OC)CC3)c2c1 | 251 nM | 72% |  | 
63 | COc1cccc2c(C(=O)c3ccccc3)cn(CCCN3C4CCC3CC(CC(=O)c3ccc(Cl)cc3)C4)c12 (centres unmarked) | 251 nM | 143% |  | 
64 | COc1cccc2c(C(=O)C3CC3)cn(CCCN3CCC(CCOc4ccc(Cl)cc4)CC3)c12 | 316 nM | 89% |  | 
65 | COc1cccc2c(C(=O)NCc3cccc(Cl)c3)cn(CCCN3CCC(Oc4ccc(F)cc4)CC3)c12 | 316 nM | 106% |  | 
66 | CCCCC[C@H]1C[C@H]2CC[C@@H](C1)N2CCCn1cc(C(C)=O)c2cccc(Cl)c21 | 316 nM | 72% |  | 
67 | COc1cccc2c(C(=O)c3ccccc3)cn(CCCNC3Cc4ccccc4C3)c12 | 316 nM | 93% |  | 
68 | COc1cccc2c(C(=O)NCc3cccc(Cl)c3)cn(CCCN3C4CCC3CC(CC(=O)c3ccc(Cl)cc3)C4)c12 (centres unmarked) | 316 nM | 76% |  | 
69 | COc1cccc2c(C(=O)NCc3cccc(C)c3)cn(CCCN3CCC(N4C(=O)Cc5ccccc54)CC3)c12 | 2000 nM |  | 43% | 
70 | CC(=O)c1cn(CCCN2CCC(N3C(=O)Cc4ccccc43)CC2)c2c(C)cccc12 | 12600 nM |  | 69% | 
71 | CC(=O)c1cn(CCCN2CCC(N3C(=O)Cc4ccccc43)CC2)c2c(Cl)cccc12 |  |  | 28% | 
72 | CC(=O)c1c(C)n(CCCN2CCC(N3C(=O)Cc4ccccc43)CC2)c2c(Br)cccc12 |  |  | 12% | 
73 | COc1cccc2c(C#N)cn(CCCN3CCC(N4C(=O)Cc5ccccc54)CC3)c12 |  |  | 33% | 
